{
  "source": "PubChem BioAssay AID1963983",
  "about": "(Molecular Pharmacology Branch, DTP, NCI, 2024);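 note: spheroids exposed to compounds for seven days before viability reading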;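 for viability, T/C: 100% = DMSO vehicle control viability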",
  "test_system": "186277-243-T-J2-PDC multi-cell spheroid viability",
  "experiment": "Anticancer human tumor 186277-243-T-J2-PDC patient-derived colon adenocarcinoma cell line growth inhibition [PI3K]",
  "conditions": "for IC50: curve of first compound; for viability, T/C: stronger effect = lower value",
  "how_it_was_run": "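Complex 3D spheroids (cancer cells + endothelial HUVEC + mesenchymal stem cells); drug pairs of targeted agent x inavolisib/alpelisib/duvelisib/copanlisib; half-log series from ~Cmax, max 10 microM if Cmax unknown; endpoint viability.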",
  "key": {"[1]": {"conditions": "second compound 0.00316 µM, first compound 0.0316 µM"}, "[2]": {"conditions": "second compound 0.00316 µM, first compound 0.1 µM"}, "[3]": {"conditions": "second compound 0.00316 µM, first compound 0.316 µM"}, "[4]": {"conditions": "second compound 0.00316 µM, first compound 1 µM"}, "[5]": {"conditions": "second compound 0.00316 µM, first compound 3.16 µM"}, "[6]": {"conditions": "second compound 0.00316 µM, first compound 10 µM"}, "[7]": {"conditions": "second compound 0.01 µM, first compound 0.0316 µM"}, "[8]": {"conditions": "second compound 0.01 µM, first compound 0.1 µM"}, "[9]": {"conditions": "second compound 0.01 µM, first compound 0.316 µM"}, "[10]": {"conditions": "second compound 0.01 µM, first compound 1 µM"}, "[11]": {"conditions": "second compound 0.01 µM, first compound 3.16 µM"}, "[12]": {"conditions": "second compound 0.01 µM, first compound 10 µM"}, "[13]": {"conditions": "second compound 0.0316 µM, first compound 0.0316 µM"}, "[14]": {"conditions": "second compound 0.0316 µM, first compound 0.1 µM"}, "[15]": {"conditions": "second compound 0.0316 µM, first compound 0.316 µM"}, "[16]": {"conditions": "second compound 0.0316 µM, first compound 1 µM"}, "[17]": {"conditions": "second compound 0.0316 µM, first compound 3.16 µM"}, "[18]": {"conditions": "second compound 0.0316 µM, first compound 10 µM"}, "[19]": {"conditions": "second compound 0.1 µM, first compound 0.0316 µM"}, "[20]": {"conditions": "second compound 0.1 µM, first compound 0.1 µM"}, "[21]": {"conditions": "second compound 0.1 µM, first compound 0.316 µM"}, "[22]": {"conditions": "second compound 0.1 µM, first compound 1 µM"}, "[23]": {"conditions": "second compound 0.1 µM, first compound 3.16 µM"}, "[24]": {"conditions": "second compound 0.1 µM, first compound 10 µM"}, "[25]": {"conditions": "second compound 0.316 µM, first compound 0.0316 µM"}, "[26]": {"conditions": "second compound 0.316 µM, first compound 0.1 µM"}, "[27]": {"conditions": "second compound 0.316 µM, first compound 0.316 µM"}, "[28]": {"conditions": "second compound 0.316 µM, first compound 1 µM"}, "[29]": {"conditions": "second compound 0.316 µM, first compound 3.16 µM"}, "[30]": {"conditions": "second compound 0.316 µM, first compound 10 µM"}, "[31]": {"conditions": "second compound 1 µM, first compound 0.0316 µM"}, "[32]": {"conditions": "second compound 1 µM, first compound 0.1 µM"}, "[33]": {"conditions": "second compound 1 µM, first compound 0.316 µM"}, "[34]": {"conditions": "second compound 1 µM, first compound 1 µM"}, "[35]": {"conditions": "second compound 1 µM, first compound 3.16 µM"}, "[36]": {"conditions": "second compound 1 µM, first compound 10 µM"}},
  "data": [
    {"smiles": "C=CC(=O)N1CCN(c2nc(=O)n(-c3c(C)ccnc3C(C)C)c3nc(-c4c(O)cccc4F)c(F)cc23)C(C)C1", "note": "(centres undefined) + COc1c(OCCCN2CCOCC2)ccc2c3n(c(=NC(=O)c4cnc(N)nc4)nc12)CCN3", "values": [
      {"measurement": "IC50", "setting": "second compound 0.00316 µM", "value": "> 10000", "unit": "nM"},
      {"measurement": "IC50", "setting": "second compound 0.01 µM", "value": "> 10000", "unit": "nM"},
      {"measurement": "IC50", "setting": "second compound 0.0316 µM", "value": 1870, "unit": "nM"},
      {"measurement": "IC50", "setting": "second compound 0.1 µM", "value": "< 31.6", "unit": "nM"},
      {"measurement": "IC50", "setting": "second compound 0.316 µM", "value": "< 31.6", "unit": "nM"},
      {"measurement": "IC50", "setting": "second compound 1 µM", "value": "< 31.6", "unit": "nM"},
      {"measurement": "viability, T/C", "setting": "[1]", "value": 102, "unit": "%"},
      {"measurement": "viability, T/C", "setting": "[2]", "value": 88.7, "unit": "%"},
      {"measurement": "viability, T/C", "setting": "[3]", "value": 88.1, "unit": "%"},
      {"measurement": "viability, T/C", "setting": "[4]", "value": 88.1, "unit": "%"},
      {"measurement": "viability, T/C", "setting": "[5]", "value": 93.2, "unit": "%"},
      {"measurement": "viability, T/C", "setting": "[6]", "value": 73, "unit": "%"},
      {"measurement": "viability, T/C", "setting": "[7]", "value": 93.1, "unit": "%"},
      {"measurement": "viability, T/C", "setting": "[8]", "value": 88.2, "unit": "%"},
      {"measurement": "viability, T/C", "setting": "[9]", "value": 94.4, "unit": "%"},
      {"measurement": "viability, T/C", "setting": "[10]", "value": 93.6, "unit": "%"},
      {"measurement": "viability, T/C", "setting": "[11]", "value": 87.8, "unit": "%"},
      {"measurement": "viability, T/C", "setting": "[12]", "value": 62.3, "unit": "%"},
      {"measurement": "viability, T/C", "setting": "[13]", "value": 59.7, "unit": "%"},
      {"measurement": "viability, T/C", "setting": "[14]", "value": 67.1, "unit": "%"},
      {"measurement": "viability, T/C", "setting": "[15]", "value": 57.5, "unit": "%"},
      {"measurement": "viability, T/C", "setting": "[16]", "value": 52.6, "unit": "%"},
      {"measurement": "viability, T/C", "setting": "[17]", "value": 47.8, "unit": "%"},
      {"measurement": "viability, T/C", "setting": "[18]", "value": 31.2, "unit": "%"},
      {"measurement": "viability, T/C", "setting": "[19]", "value": 18.3, "unit": "%"},
      {"measurement": "viability, T/C", "setting": "[20]", "value": 18.1, "unit": "%"},
      {"measurement": "viability, T/C", "setting": "[21]", "value": 14.9, "unit": "%"},
      {"measurement": "viability, T/C", "setting": "[22]", "value": 12.3, "unit": "%"},
      {"measurement": "viability, T/C", "setting": "[23]", "value": 11.1, "unit": "%"},
      {"measurement": "viability, T/C", "setting": "[24]", "value": 10.9, "unit": "%"},
      {"measurement": "viability, T/C", "setting": "[25]", "value": 6.24, "unit": "%"},
      {"measurement": "viability, T/C", "setting": "[26]", "value": 4.28, "unit": "%"},
      {"measurement": "viability, T/C", "setting": "[27]", "value": 3.7, "unit": "%"},
      {"measurement": "viability, T/C", "setting": "[28]", "value": 4.23, "unit": "%"},
      {"measurement": "viability, T/C", "setting": "[29]", "value": 7.04, "unit": "%"},
      {"measurement": "viability, T/C", "setting": "[30]", "value": 4.1, "unit": "%"},
      {"measurement": "viability, T/C", "setting": "[31]", "value": 1.93, "unit": "%"},
      {"measurement": "viability, T/C", "setting": "[32]", "value": 4.05, "unit": "%"},
      {"measurement": "viability, T/C", "setting": "[33]", "value": 1.66, "unit": "%"},
      {"measurement": "viability, T/C", "setting": "[34]", "value": 2.03, "unit": "%"},
      {"measurement": "viability, T/C", "setting": "[35]", "value": 2.92, "unit": "%"},
      {"measurement": "viability, T/C", "setting": "[36]", "value": 2.49, "unit": "%"}
    ]},
    {"smiles": "CC(C)NCC(C(=O)N1CCN(c2ncnc3c2C(C)CC3O)CC1)c1ccc(Cl)cc1", "note": "(centres undefined) + COc1c(OCCCN2CCOCC2)ccc2c3n(c(=NC(=O)c4cnc(N)nc4)nc12)CCN3", "values": [
      {"measurement": "IC50", "setting": "second compound 0.00316 µM", "value": 919, "unit": "nM"},
      {"measurement": "IC50", "setting": "second compound 0.01 µM", "value": 551, "unit": "nM"},
      {"measurement": "IC50", "setting": "second compound 0.0316 µM", "value": 178, "unit": "nM"},
      {"measurement": "IC50", "setting": "second compound 0.1 µM", "value": "< 31.6", "unit": "nM"},
      {"measurement": "IC50", "setting": "second compound 0.316 µM", "value": "< 31.6", "unit": "nM"},
      {"measurement": "IC50", "setting": "second compound 1 µM", "value": "< 31.6", "unit": "nM"},
      {"measurement": "viability, T/C", "setting": "[1]", "value": 93.9, "unit": "%"},
      {"measurement": "viability, T/C", "setting": "[2]", "value": 86.5, "unit": "%"},
      {"measurement": "viability, T/C", "setting": "[3]", "value": 73.1, "unit": "%"},
      {"measurement": "viability, T/C", "setting": "[4]", "value": 46.9, "unit": "%"},
      {"measurement": "viability, T/C", "setting": "[5]", "value": 30.9, "unit": "%"},
      {"measurement": "viability, T/C", "setting": "[6]", "value": 20.5, "unit": "%"},
      {"measurement": "viability, T/C", "setting": "[7]", "value": 102, "unit": "%"},
      {"measurement": "viability, T/C", "setting": "[8]", "value": 93.2, "unit": "%"},
      {"measurement": "viability, T/C", "setting": "[9]", "value": 68.8, "unit": "%"},
      {"measurement": "viability, T/C", "setting": "[10]", "value": 29.2, "unit": "%"},
      {"measurement": "viability, T/C", "setting": "[11]", "value": 20.6, "unit": "%"},
      {"measurement": "viability, T/C", "setting": "[12]", "value": 12.2, "unit": "%"},
      {"measurement": "viability, T/C", "setting": "[13]", "value": 69.4, "unit": "%"},
      {"measurement": "viability, T/C", "setting": "[14]", "value": 62.7, "unit": "%"},
      {"measurement": "viability, T/C", "setting": "[15]", "value": 37.1, "unit": "%"},
      {"measurement": "viability, T/C", "setting": "[16]", "value": 23.2, "unit": "%"},
      {"measurement": "viability, T/C", "setting": "[17]", "value": 15.2, "unit": "%"},
      {"measurement": "viability, T/C", "setting": "[18]", "value": 10.8, "unit": "%"},
      {"measurement": "viability, T/C", "setting": "[19]", "value": 21.8, "unit": "%"},
      {"measurement": "viability, T/C", "setting": "[20]", "value": 16.4, "unit": "%"},
      {"measurement": "viability, T/C", "setting": "[21]", "value": 11, "unit": "%"},
      {"measurement": "viability, T/C", "setting": "[22]", "value": 7.77, "unit": "%"},
      {"measurement": "viability, T/C", "setting": "[23]", "value": 7.84, "unit": "%"},
      {"measurement": "viability, T/C", "setting": "[24]", "value": 5.5, "unit": "%"},
      {"measurement": "viability, T/C", "setting": "[25]", "value": 5.04, "unit": "%"},
      {"measurement": "viability, T/C", "setting": "[26]", "value": 3.98, "unit": "%"},
      {"measurement": "viability, T/C", "setting": "[27]", "value": 5.15, "unit": "%"},
      {"measurement": "viability, T/C", "setting": "[28]", "value": 10.1, "unit": "%"},
      {"measurement": "viability, T/C", "setting": "[29]", "value": 6.04, "unit": "%"},
      {"measurement": "viability, T/C", "setting": "[30]", "value": 8.76, "unit": "%"},
      {"measurement": "viability, T/C", "setting": "[31]", "value": 1.65, "unit": "%"},
      {"measurement": "viability, T/C", "setting": "[32]", "value": 3.37, "unit": "%"},
      {"measurement": "viability, T/C", "setting": "[33]", "value": 1.85, "unit": "%"},
      {"measurement": "viability, T/C", "setting": "[34]", "value": 2.98, "unit": "%"},
      {"measurement": "viability, T/C", "setting": "[35]", "value": 2.47, "unit": "%"},
      {"measurement": "viability, T/C", "setting": "[36]", "value": 2.26, "unit": "%"}
    ]}
  ]
}
